Assay [1] relates to Human platelet aggregation caused by ADP. Put plainly: Inhibition of ADP-induced platelet aggregation (Mimic-human PRP). The conditions noted are these: 20 μM ADP, human platelet concentrate diluted with PPP, absorption at 595 nm. The assay is classed as cell-based. A digest of the protocol: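 Ki came from non-linear sigmoidal fits of inhibition, measured as the 3-min rise in absorbance at 595 nm after 20 μM ADP, relative to 0/20 μM ADP controls. Platelets (3–4×10^8/mL in PPP-diluted human PRP) were exposed to 0.01–30 μM compound for 20 min at room temperature beforehand.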

In the next assay the target is T1, Human P2Y12 receptor (Homo sapiens, UniProt Q9H244).
T1 construct: expressed in transfected cells; host or cells: HEK cells
T1 sequence (Q9H244 whole entry): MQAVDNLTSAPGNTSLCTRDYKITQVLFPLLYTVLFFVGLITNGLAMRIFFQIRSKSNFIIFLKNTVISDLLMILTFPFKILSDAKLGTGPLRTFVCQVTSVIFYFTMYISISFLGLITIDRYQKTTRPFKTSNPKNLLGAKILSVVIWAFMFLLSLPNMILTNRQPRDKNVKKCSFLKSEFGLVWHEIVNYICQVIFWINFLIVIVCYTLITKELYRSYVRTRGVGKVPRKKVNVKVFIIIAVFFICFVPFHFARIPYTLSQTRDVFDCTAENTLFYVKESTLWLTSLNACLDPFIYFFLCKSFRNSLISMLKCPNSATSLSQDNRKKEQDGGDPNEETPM
Put plainly: Human P2Y12 receptor cell membrane binding assay with [3H] 2-Mes-ADP. Particulars: 1 nM [3H] 2-Mes-ADP, membranes of HEK cells expressing P2Y12 receptor; read-out: Binding activity (IC50). A digest of the protocol: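 Competition binding used 1 nM [3H]2-MeS-ADP on P2Y12-expressing HEK cell membranes for 1 h at room temperature, followed by filtration and scintillation counting.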

For 24 compounds, Ki and IC50 results are on record in patent US20110166121A1 (LG LIFE SCIENCES LTD., priority 2008, published 2011).

Molecules are shown by their SMILES.

`CCCc1cc2c(N3CCn4c(nnc4C(F)(F)F)C3)nc(N3CCNc4ccccc43)nc2s1` [Example 1-68, 1-[6-Propyl-4-(3-trifluoromethyl-5,6-dihydro-8H-[1,2,4]triazolo[4,3-a]pyrazin-7-yl)-thieno[2,3-d]pyrimidin-2-yl]-1,2,3,4-tetrahydro-quinoxaline]: the affinity in assay [1] corresponds to a Ki of 430 nM. Also, the IC50 on Human P2Y12 receptor was 100 nM.
For `CCCc1cc2c(N3CCn4c(C)nnc4C3)nc(OCC(CO)CO)nc2s1` [Example 6-18, 2-[4-(3-Methyl-5,6-dihydro-8H-[1,2,4]triazolo[4,3-a]pyrazin-7-yl)-6-propyl-thieno[2,3-d]pyrimidin-2-yloxymethyl]-propane-1,3-diol], the affinity in assay [1], expressed as Ki, was 300 nM. In addition, the IC50 at Human P2Y12 receptor turned out to be 670 nM.
As for `CCCc1cc2c(N3CCn4c(nnc4C(F)(F)F)C3)nc(NCCO)nc2s1` [Example 1-10, 2-[6-Propyl-4-(3-trifluoromethyl-5,6-dihydro-8H-[1,2,4]triazolo[4,3-a]pyrazin-7-yl)-thieno[2,3-d]pyrimidin-2-ylamino]-ethanol], the Ki in assay [1] worked out at 178 nM. The 50% inhibitory concentration (IC50) on Human P2Y12 receptor amounted to 110 nM.
Taken in the same sequence, the figures for `CCCc1cc2c(N3CCn4c(nnc4C(F)(F)F)C3)nc(C(=O)N3CCCC(C(=O)O)C3)nc2s1` (stereo not drawn) [Example 4-15, 1-[6-Propyl-4-(3-trifluoromethyl-5,6-dihydro-8H-[1,2,4]triazolo[4,3-a]pyrazin-7-yl)thieno[2,3-d]pyrimidine-2-carbonyl]piperidine-3-carboxylic acid] were 690 nM and 630 nM.
For `CCCc1cc2c(N3CCn4c(nnc4C(F)(F)F)C3)nc(-c3nnc(CC#N)o3)nc2s1` [Example 4-34, {5-[6-Propyl-4-(3-trifluoromethyl-5,6-dihydro-8H-[1,2,4]triazolo[4,3-a]pyrazin-7-yl)thieno[2,3-d]pyrimidin-2-yl]-[1,3,4]oxadiazol-2-yl}acetonitrile] the same measures were 13 nM and 68 nM.
Compound `CCCc1cc2c(N3CCn4c(nnc4C(F)(F)F)C3)nc(C3=N[C@H](CC(=O)OC(C)C)CS3)nc2s1` [Example 4-48, {(R)-2-[6-Propyl-4-(3-trifluoromethyl-5,6-dihydro-8H-[1,2,4]triazolo[4,3-a]pyrazin-7-yl)thieno[2,3-d]pyrimidin-2-yl]-4,5-dihydro-thiazol-4-yl}acetic acid isopropyl ester] gave a Ki in assay [1] of 510 nM. In addition, the concentration for half-maximal inhibition (IC50) at Human P2Y12 receptor is 210 nM.
`CC(C)c1cc2c(N3CCn4c(nnc4C(F)(F)F)C3)nc(N3CCNC(=O)C3)nc2s1` [Example 2-12, 4-[6-isopropyl-4-(3-trifluoromethyl-5,6-dihydro-8H-[1,2,4]triazolo[4,3-a]pyrazin-7-yl)-thieno[2,3-d]pyrimidin-2-yl]-piperazin-2-one] registered a Ki in assay [1] of 2900 nM. The IC50 at Human P2Y12 receptor came to 460 nM.
`CCCc1cc2c(N3CCn4c(nnc4C(F)(F)F)C3)nc(N3CCCC(C(=O)O)C3)nc2s1` (stereo not drawn) [Example 1-46, 1-[6-Propyl-4-(3-trifluoromethyl-5,6-dihydro-8H-[1,2,4]triazolo[4,3-a]pyrazin-7-yl)-thieno[2,3-d]pyrimidin-2-yl]-piperidine-3-carboxylic acid] registered a Ki in assay [1] of 58 nM. For the same compound, on Human P2Y12 receptor, the IC50 was found to be 21 nM.
As for `CCCc1cc2c(N3CCn4c(nnc4C(F)(F)F)C3)nc(NCCOCCO)nc2s1` [Example 1-123, 2-{2-[6-Propyl-4-(3-trifluoromethyl-5,6-dihydro-8H-[1,2,4]triazolo[4,3-a]pyrazin-7-yl)-thieno[2,3-d]pyrimidin-2-ylamino]-ethoxy}-ethanol], in assay [1], the Ki was 367 nM. Further, the half-inhibitory concentration (IC50) at Human P2Y12 receptor turned out to be 260 nM.
In turn, `CCc1cc2c(N3CCn4c(nnc4C(F)(F)F)C3)nc(NCCO)nc2s1` [Example 2-5, 2-[6-Ethyl-4-(3-trifluoromethyl-5,6-dihydro-8H-[1,2,4]triazolo[4,3-a]pyrazin-7-yl)-thieno[2,3-d]pyrimidin-2-ylamino]-ethanol] had a Ki in assay [1] of 857 nM. Moreover, the IC50 on Human P2Y12 receptor turned out to be 710 nM.
Compound `CCCc1cc2c(N3CCn4c(nnc4C(F)(F)F)C3)nc(N3CC[C@H](C(=O)OCOC(=O)C(C)(C)C)C3)nc2s1` [Example 1-59, (S)-1-[6-Propyl-4-(3-trifluoromethyl-5,6-dihydro-8H-[1,2,4]triazolo[4,3-a]pyrazin-7-yl)-thieno[2,3-d]pyrimidin-2-yl]-pyrrolidine-3-carboxylic acid 2,2-dimethyl-propionyloxymethyl ester] had a Ki in assay [1] of 1450 nM. In addition, at Human P2Y12 receptor, the IC50 was 440 nM.
In turn, `CCc1cc2c(N3CCn4c(nnc4C(F)(F)F)C3)nc(N3CCNCC3)nc2s1` [Example 2-7, 7-(6-Ethyl-2-piperazin-1-yl-thieno[2,3-d]pyrimidin-4-yl)-3-trifluoromethyl-5,6,7,8-tetrahydro-[1,2,4]triazolo[4,3-a]pyrazine] displayed a Ki in assay [1] of 669 nM. The IC50 on Human P2Y12 receptor was determined as 210 nM.
Regarding `CCCc1cc2c(N3CCn4c(nnc4C(F)(F)F)C3)nc(Nc3ccccc3)nc2s1` [Example 1-36, Phenyl-[6-propyl-4-(3-trifluoromethyl-5,6-dihydro-8H-[1,2,4]triazolo[4,3-a]pyrazin-7-yl)-thieno[2,3-d]pyrimidin-2-yl]-amine], the Ki in assay [1] is 1200 nM. Moreover, the IC50 at Human P2Y12 receptor came out at 170 nM.
In assay [1], `CCCc1cc2c(N3CCn4c(nnc4C(F)(F)F)C3)nc(OCCC(OC)OC)nc2s1` [Example 3-14, 7-[2-(3,3-Dimethoxy-propoxy)-6-propyl-thieno[2,3-d]pyrimidin-4-yl]-3-trifluoromethyl-5,6,7,8-tetrahydro-[1,2,4]triazolo[4,3-a]pyrazine] gave a Ki of 1100 nM. Further, the IC50 at Human P2Y12 receptor was determined as 240 nM.
With `CCCc1cc2c(N3CCn4c(nnc4C(F)(F)F)C3)nc(N3CC[C@H](OC(C)=O)C3)nc2s1` [Example 1-22, Acetic Acid (S)-1-[6-propyl-4-(3-trifluoromethyl-5,6-dihydro-8H-[1,2,4]triazolo[4,3-a]pyrazin-7-yl)-thieno[2,3-d]pyrimidin-2-yl]-pyrrolidin-3-yl ester], the Ki in assay [1] is 130 nM. Besides, at Human P2Y12 receptor, the IC50 was found to be 65 nM.
For `CCCc1cc2c(N3CCn4c(nnc4C(F)(F)F)C3)nc(OCCNC(=O)CCCS(N)(=O)=O)nc2s1` [Example 3-67, N-{2-[6-Propyl-4-(3-trifluoromethyl-5,6-dihydro-8H-[1,2,4]triazolo[4,3-a]pyrazin-7-yl)-thieno[2,3-d]pyrimidin-2-yloxy]-ethyl}-4-sulfamoyl-butyramide], the inhibition constant Ki in assay [1] was 17 nM. Further, on Human P2Y12 receptor, the concentration for half-maximal inhibition (IC50) was 90 nM.
In assay [1], `CCCc1cc2c(N3CCn4c(nnc4C(F)(F)F)C3)nc(N3CC(OC(C)=O)C3)nc2s1` [Example 1-84, Acetic Acid 1-[6-propyl-4-(3-trifluoromethyl-5,6-dihydro-8H-[1,2,4]triazolo[4,3-a]pyrazin-7-yl)-thieno[2,3-d]pyrimidin-2-yl]-azetidin-3-yl ester] returned a Ki of 73 nM. The IC50 at Human P2Y12 receptor was 160 nM.
Turning to `CCc1cc2c(N3CCn4c(C)nnc4C3)nc(OCC(O)CO)nc2s1` (stereo not drawn) [Example 6-13, 3-[6-Ethyl-4-(3-methyl-5,6-dihydro-8H-[1,2,4]triazolo[4,3-a]pyrazin-7-yl)-thieno[2,3-d]pyrimidin-2-yloxy]-propane-1,2-diol], in assay [1], the Ki is 716 nM. Also, the IC50 at Human P2Y12 receptor was 2460 nM.
For `CCc1cc2c(N3CCn4c(C)nnc4C3)nc(N3CCNC(=O)C3)nc2s1` [Example 6-12, 4-[6-Ethyl-4-(3-methyl-5,6-dihydro-8H-[1,2,4]triazolo[4,3-a]pyrazin-7-yl)-thieno[2,3-d]pyrimidin-2-yl]-piperazin-2-one] the same measures were 809 nM and 760 nM.
Take `CCCc1cc2c(N3CCn4c(nnc4C(F)(F)F)C3)nc(N3CCC(=NOC)C3)nc2s1` [Example 1-20, 1-[6-Propyl-4-(3-trifluoromethyl-5,6-dihydro-8H-[1,2,4]triazolo[4,3-a]pyrazin-7-yl)-thieno[2,3-d]pyrimidin-2-yl]-pyrrolidin-3-one O-methyloxime]: the Ki in assay [1] was 190 nM. The concentration for half-maximal inhibition (IC50) on Human P2Y12 receptor was found to be 163 nM.
Taken in the same sequence, the figures for `CCCc1cc2c(N3CCn4c(nnc4C(F)(F)F)C3)nc(N3CC[C@H](C(=O)NCCO)C3)nc2s1` [Example 1-90, (S)-1-[6-Propyl-4-(3-trifluoromethyl-5,6-dihydro-8H-[1,2,4]triazolo[4,3-a]pyrazin-7-yl)-thieno[2,3-d]pyrimidin-2-yl]-pyrrolidine-3-carboxylic acid (2-hydroxy-ethyl)-amide] were 50 nM and 110 nM.
Turning to `CCCc1cc2c(N3CCn4c(nnc4C(F)(F)F)C3)nc(COc3ccccc3)nc2s1` [Example 4-23, 7-(2-Phenoxymethyl-6-propyl-thieno[2,3-d]pyrimidin-4-yl)-3-trifluoromethyl-5,6,7,8-tetrahydro-[1,2,4]triazolo[4,3-a]pyrazine], the Ki in assay [1] stood at 6850 nM. For the same compound, the IC50 on Human P2Y12 receptor stood at 420 nM.
On to `CCCc1cc2c(N3CCn4c(nnc4C(F)(F)F)C3)nc(N3CCN(C(=O)C(F)(F)F)CC3)nc2s1` [Example 1-82, 2,2,2-Trifluoro-1-{4-[6-propyl-4-(3-trifluoromethyl-5,6-dihydro-8H-[1,2,4]triazolo[4,3-a]pyrazin-7-yl)-thieno[2,3-d]pyrimidin-2-yl]-piperazin-1-yl}-ethanone], for which the inhibition constant Ki in assay [1] is over 4000 nM. Also, the IC50 at Human P2Y12 receptor came to 14300 nM.
With `CCc1cc2c(N3CCn4c(nnc4C(F)(F)F)C3)nc(OCCO)nc2s1` [Example 3-50, 2-[6-Ethyl-4-(3-trifluoromethyl-5,6-dihydro-8H-[1,2,4]triazolo[4,3-a]pyrazin-7-yl)-thieno[2,3-d]pyrimidin-2-yloxy]-ethanol], the Ki in assay [1] is 141 nM. The 50% inhibitory concentration (IC50) on Human P2Y12 receptor worked out at 596 nM.
